In ChEMBL document CHEMBL5729210, “Benzodiazepine derivatives as RSV inhibitors” (2022):
Several values for one entry are separate records, joined by “and”; a condition that tells them apart may be missing. Identical values can stand only once.

Assay: RSV-A Assay: The description is Japanese.

| Compound | EC50 |
| --- | --- |
| O=C1Nc2ccccc2C(c2ccccc2)=NC1Nc1nnc(-c2ncc(N3CCOCC3)cc2F)o1 (stereo not drawn) | < 400 nM |
| O=C(O)c1ccc(-n2cncn2)cc1N1CCOCC1 | in the range around 600 nM |
| COC(=O)c1ncc(C#N)cc1N1CCOCC1 | < 400 nM |
| O=C1Nc2ccccc2C(c2ccccc2)=NC1Nc1nc(Cl)ns1 (stereo not drawn) | > 800 nM |
| O=C1Nc2ccccc2C(c2ccccc2)=NC1Nc1nc2ccc(F)cc2o1 (stereo not drawn) | > 800 nM |
| O=C1Nc2ccccc2C(c2ccccc2)=N[C@@H]1Nc1nnc(-c2ncc(C3CC3)cc2N2CCOCC2)o1 | < 400 nM |
| O=C1Nc2ccccc2C(c2ccccc2)=NC1Nc1nnc(-c2ccc(N3CCOCC3)cc2)o1 (stereo not drawn) | < 400 nM |
| Cn1c(N2CCOCC2)c(-c2nnc(N[C@H]3N=C(c4ccccc4)c4ccccc4NC3=O)o2)ccc1=O | < 400 nM |
| Cc1nc(-c2nnc(NC3N=C(c4ccccc4)c4ccccc4NC3=O)o2)ccc1F (stereo not drawn) | > 800 nM |
| COc1ccc(CN2C(=O)C(Nc3ccc(-c4ccccc4)nn3)N=C(c3ccccc3)c3ccccc32)cc1 (stereo not drawn) | in the range around 600 nM |
| O=C1Nc2ccccc2C(c2ccccc2)=NC1Nc1nnc(-c2cc(F)ccc2N2CCOCC2)o1 (stereo not drawn) | in the range around 600 nM |
| O=C1Nc2ccccc2C(c2ccccc2)=NC1Nc1nnc(-c2ccc(F)cc2N2CCOCC2)o1 (stereo not drawn) | < 400 nM |
| O=C1Nc2ccccc2C(c2ccccc2)=N[C@@H]1Nc1nnc(-c2ccc(N3CCOCC3)cc2F)o1 | < 400 nM |
| O=c1c(Br)cccn1Cc1ccccc1 | > 800 nM |
| O=C1Nc2ccccc2C(c2ccccc2)=NC1Nc1nnc(-c2cnccc2N2CCOCC2)o1 (stereo not drawn) | in the range around 600 nM |
| O=C1Nc2ccccc2C(c2ccccc2)=N[C@@H]1Nc1nnc(-c2cnc(N3CCOCC3)cn2)o1 | > 800 nM |
| O=C(O)c1ccncc1N1CCCCC1 | > 800 nM |
| O=C1Nc2ccccc2C(c2ccccc2)=NC1Nc1nnc(-c2ccc(F)cc2)s1 (stereo not drawn) | > 800 nM |
| O=C1Nc2ccccc2C(c2ccccc2)=NC1Nc1nnc(-c2ccncc2N2CCOCC2)o1 (stereo not drawn) | in the range around 600 nM |
| Cn1cc(N2CCOCC2)c(-c2nnc(N[C@H]3N=C(c4ccccc4)c4ccccc4NC3=O)o2)n1 | < 400 nM |
| NNC(=O)c1ccc(N2CCOCC2)cc1C(F)(F)F | > 800 nM |
| O=C1Nc2ccccc2C(c2ccccc2)=N[C@@H]1Nc1nnc(-c2cnc(N3CC4CCC(C3)O4)nc2)o1 | > 800 nM |
| COCCN(C)c1ccc(-c2nnc(NC3N=C(c4ccccc4)c4ccccc4NC3=O)o2)cc1 (stereo not drawn) | > 800 nM |
| O=C1Nc2ccccc2C(c2ccccc2)=NC1Nc1ncc(-c2ccccc2)o1 (stereo not drawn) | > 800 nM |
| O=C1Nc2ccccc2C(c2ccccc2)=N[C@H]1Nc1nnc(-c2ccccc2N2CCOCC2)o1 | > 800 nM |

| Compound | EC50 |
| --- | --- |
| CCc1nc(N2CCOCC2)c(-c2nnc(N[C@H]3N=C(c4ccccc4)c4ccccc4NC3=O)o2)cc1C#N | < 400 nM |
| O=C1Nc2ccccc2C(c2ccccc2)=NC1Nc1nc2cc(F)ccc2o1 (stereo not drawn) | > 800 nM |
| CCOC(=O)c1cnc(C2CC2)nc1N1CCOCC1 | < 400 nM |
| O=C1Nc2ccccc2C(c2ccccc2)=NC1Nc1nnc(-c2cccc(F)c2N2CCOCC2)o1 (stereo not drawn) | > 800 nM |
| N#Cc1cnc(N2CCOCC2)c(-c2nnc(N[C@H]3N=C(c4ccccc4)c4ccccc4NC3=O)o2)c1 | < 400 nM |
| O=C1Nc2ccccc2C(c2ccccc2)=NC1Nc1nc(-c2ccccc2)cs1 (stereo not drawn) | > 800 nM |
| O=C1Nc2ccccc2C(c2ccccc2)=N[C@H]1Nc1nnc(-c2ccc(N3CCOCC3)cc2)o1 | > 800 nM |
| O=C1Nc2ccccc2C(c2ccccc2)=NC1Nc1nnc(-c2ccccc2)[nH]1 (stereo not drawn) | > 800 nM |
| O=C1Nc2ccccc2C(c2ccccc2)=NC1Nc1cc(Oc2ccccc2)ncn1 (stereo not drawn) | > 800 nM |
| O=C1Nc2ccccc2C(c2ccccc2)=N[C@H]1Nc1nnc(-c2ccc(N3CCOCC3)cc2F)o1 | > 800 nM |
| O=C1Nc2ccccc2C(c2ccccc2)=NC1Nc1nnc(-c2ccc(-n3cccn3)cc2N2CCOCC2)o1 (stereo not drawn) | < 400 nM |
| O=C1Nc2ccccc2C(c2ccccc2)=NC1Nc1nnc(-c2ncc(C(F)(F)F)cc2N2CCOCC2)o1 (stereo not drawn) | < 400 nM |
| O=C1Nc2ccccc2C(c2ccccc2)=NC1Nc1ccnc(-c2ccccc2)n1 (stereo not drawn) | > 800 nM |
| O=C1Nc2ccccc2C(c2ccccc2)=NC1Nc1nc2ccccc2o1 (stereo not drawn) | > 800 nM |
| O=C1Nc2ccccc2C(c2ccccc2)=NC1Nc1nnc(-c2ccc(F)nc2N2CCOCC2)o1 (stereo not drawn) | in the range around 600 nM and < 400 nM |
| O=C1Nc2ccccc2C(c2ccccc2)=N[C@@H]1Nc1nnc(-c2ccccc2N2CCOCC2)o1 | < 400 nM |
| Cc1ccc(C(=O)O)c(N2CCOCC2)n1 | < 400 nM |
| O=C1Nc2ccccc2C(c2ccccc2)=NC1Nc1nnc(-c2ccc(N3CCOCC3)nc2)o1 (stereo not drawn) | < 400 nM |
| O=C1Nc2ccccc2C(c2ccccc2)=N[C@@H]1Nc1nnc(-c2cnc(-n3cncn3)nc2N2CCOCC2)o1 | > 800 nM |
| Cc1nc(N2CCOCC2)c(-c2nnc(N[C@H]3N=C(c4ccccc4)c4ccccc4NC3=O)o2)cc1C#N | < 400 nM |
| O=C1Nc2ccccc2C(c2ccccc2)=N[C@@H]1Nc1nnc(-c2cnc(N3CCOCC3)nc2)o1 | in the range around 600 nM |
| O=C1Nc2ccccc2C(c2ccccc2)=N[C@@H]1Nc1nnc(-c2ccc(C(F)(F)F)cc2N2CCOCC2)o1 | < 400 nM |
| O=C1Nc2ccccc2C(c2ccccc2)=NC1Nc1nnc(-c2c(F)cc(N3CCOCC3)cc2F)o1 (stereo not drawn) | > 800 nM |
| O=C1Nc2ccccc2C(c2ccccc2)=NC1Nc1ncc2ccccc2n1 (stereo not drawn) | > 800 nM |
| N#Cc1ccc(-c2nnc(NC3N=C(c4ccccc4)c4ccccc4NC3=O)s2)cc1 (stereo not drawn) | in the range around 600 nM |

| Compound | EC50 |
| --- | --- |
| NNC(=O)c1cc(F)cnc1N1CCOCC1 | in the range around 600 nM |
| O=C1Nc2ccccc2C(c2ccccc2)=N[C@@H]1Nc1nnc(-c2cnc(-n3cccn3)nc2N2CCOCC2)o1 | > 800 nM |
| CN(C)c1ccc(-c2nnc(NC3N=C(c4ccccc4)c4ccccc4NC3=O)o2)nc1 (stereo not drawn) | > 800 nM |
| N#Cc1cnc(-c2nnc(NC3N=C(c4ccccc4)c4ccccc4NC3=O)o2)c(N2CCOCC2)c1 (stereo not drawn) | < 400 nM |
| O=C1Nc2ccccc2C(c2ccccc2)=NC1Nc1nc2ccc(Cl)cc2o1 (stereo not drawn) | > 800 nM |
| O=C1Nc2ccccc2C(c2ccccc2)=NC1Nc1nnc(-c2cccnc2N2CCOCC2)o1 (stereo not drawn) | < 400 nM |
| O=C1Nc2ccccc2C(c2ccccc2)=NC1Nc1nnc(-c2ccc(N3CCOCC3)c(F)c2)o1 (stereo not drawn) | > 800 nM |
| O=C1Nc2ccccc2C(c2ccccc2)=NC1Nc1nnc(-c2ccc(C(F)(F)F)cc2N2CCOCC2)o1 (stereo not drawn) | < 400 nM |
| CCOC(=O)c1nc2ccccn2c1N | > 800 nM |
| O=C1Nc2ccccc2C(c2ccccc2)=NC1Nc1nc2c(F)cccc2o1 (stereo not drawn) | > 800 nM |
| N#Cc1ccc(-c2nnc(N[C@H]3N=C(c4ccccc4)c4ccccc4NC3=O)o2)c(N2CCOCC2)c1 | < 400 nM |
| Cc1ccc2oc(NC3N=C(c4ccccc4)c4ccccc4NC3=O)nc2c1 (stereo not drawn) | > 800 nM |
| O=C1Nc2ccccc2C(c2ccccc2)=NC1Nc1nnc(-c2ccc(N3CCOCC3)cn2)o1 (stereo not drawn) | > 800 nM |
| COCCNc1ccc(-c2nnc(NC3N=C(c4ccccc4)c4ccccc4NC3=O)o2)cc1 (stereo not drawn) | > 800 nM |
| O=C(O)c1cnc(C(F)(F)F)nc1N1CCOCC1 | < 400 nM |
| O=C1Nc2ccccc2C(c2ccccc2)=N[C@@H]1Nc1nnc(-c2ccc(F)nc2N2CCOCC2)o1 | < 400 nM |
| COC(=O)c1ccc(Cl)nc1N1CCOCC1 | < 400 nM |
| COc1ccc(CN2C(=O)C(C)(N=[N+]=[N-])N=C(c3ccccc3)c3ccccc32)cc1 (stereo not drawn) | > 800 nM |
| COC(=O)c1cc(Br)c(C2CC2)nc1Cl | < 400 nM |
| O=C1Nc2ccccc2C(c2ccccc2)=NC1Nc1cc(-c2ccccc2)ncn1 (stereo not drawn) | > 800 nM |
| O=C1Nc2ccccc2C(c2ccccc2)=NC1Nc1nnc(-c2ncc(N3CCOCC3)cc2Cl)o1 (stereo not drawn) | > 800 nM |
| O=C1Nc2ccccc2C(c2ccccc2)=NC1Nc1nnc(-c2ccc(N3CCOCC3)cc2Cl)o1 (stereo not drawn) | > 800 nM |
| O=C1Nc2ccccc2C(c2ccccc2)=NC1Nc1nnc(-c2cnccc2N2CCCCC2)o1 (stereo not drawn) | > 800 nM |
| Cc1cc(-c2nnc(NC3N=C(c4ccccc4)c4ccccc4NC3=O)o2)ccc1N1CCOCC1 (stereo not drawn) | in the range around 600 nM |
| O=C1Nc2ccccc2C(c2ccccc2)=NC1Nc1nnco1 (stereo not drawn) | > 800 nM |

| Compound | EC50 |
| --- | --- |
| O=C1Nc2ccccc2C(c2ccccc2)=NC1Nc1cc(N2CCOCC2)ncn1 (stereo not drawn) | > 800 nM |
| COc1ccc(-c2nnc(NC3N=C(c4ccccc4)c4ccccc4NC3=O)o2)nc1Cl (stereo not drawn) | > 800 nM |
| N#Cc1ccc(-c2nnc(NC3N=C(c4ccccc4)c4ccccc4NC3=O)o2)c(N2CCOCC2)c1 (stereo not drawn) | < 400 nM |
| CS(=O)(=O)c1ccc(-c2nnc(NC3N=C(c4ccccc4)c4ccccc4NC3=O)o2)nc1 (stereo not drawn) | > 800 nM |
| O=C1Nc2ccccc2C(c2ccccc2)=N[C@@H]1Nc1nnc(-c2ncc(Br)cc2N2CCOCC2)o1 | < 400 nM |
| CS(=O)(=O)c1ccc(-c2nnc(NC3N=C(c4ccccc4)c4ccccc4NC3=O)o2)c(N2CCOCC2)c1 (stereo not drawn) | > 800 nM |
| Cn1ncc(-c2nnc(N[C@H]3N=C(c4ccccc4)c4ccccc4NC3=O)o2)c1N1CCOCC1 | > 800 nM |
| O=C1Nc2ccccc2C(c2ccccc2)=NC1Nc1ncc(-c2ccccc2)s1 (stereo not drawn) | > 800 nM |
| O=C1Nc2ccccc2C(c2ccccc2)=NC1Nc1nc2ccccc2s1 (stereo not drawn) | > 800 nM |
| O=C1Nc2ccccc2C(c2ccccc2)=NC1Nc1nc(-c2ccccc2)ns1 (stereo not drawn) | > 800 nM |
| COc1ccc(CN2C(=O)C(NC(=S)NC(=O)c3ccccc3)N=C(c3ccccc3)c3ccccc32)cc1 (stereo not drawn) | > 800 nM |
| O=C1Nc2ccccc2C(c2ccccc2)=NC1Nc1nnc(-c2ccc(C(F)(F)F)nc2N2CCOCC2)o1 (stereo not drawn) | in the range around 600 nM |
| CCOC(=O)c1c(F)cc(F)cc1F | > 800 nM |
| O=C1Nc2ccccc2C(c2ccccc2)=NC1Nc1nnc(-c2ccncc2)s1 (stereo not drawn) | > 800 nM |
| O=C1Nc2ccccc2C(c2ccccc2)=NC1Nc1nnc(-c2ccc(NC3CCCCC3)cc2)o1 (stereo not drawn) | > 800 nM |
| CCOC(=O)c1ccc(F)cc1N1CCOCC1 | < 400 nM |
| O=C1Nc2ccccc2C(c2ccccc2)=NC1Nc1nnc(-c2cccc(N3CCOCC3)c2)o1 (stereo not drawn) | > 800 nM |
| O=C1Nc2ccccc2C(c2ccccc2)=NC1Nc1nc(-c2ccccc2)no1 (stereo not drawn) | > 800 nM |
| CCOC(=O)c1ccc(C2CC2)nc1Cl | < 400 nM |
| O=C1Nc2ccccc2C(c2ccccc2)=NC1Nc1nnc(-c2ccccc2)s1 (stereo not drawn) | > 800 nM |
| CCOC(=O)c1ncccc1N1CCOCC1 | < 400 nM |
| O=C1Nc2ccccc2C(c2ccccc2)=NC1Nc1nnc(-c2nccnc2N2CCOCC2)o1 (stereo not drawn) | < 400 nM |
| O=C1Nc2ccccc2C(c2ccccc2)=NC1Nc1nnc(-c2cc(C(F)(F)F)cnc2N2CCOCC2)o1 (stereo not drawn) | > 800 nM |
